According to ChEMBL document CHEMBL5316343, “Design, Synthesis, and Biological Evaluation of a Potent Dual EZH2-BRD4 Inhibitor for the Treatment of Some Solid Tumors” (J Med Chem, 2023):
Activity calls are given as the source filed them. The calls are words filed in the database; no cut-off is given here.

What was measured:
BXPC-3 [1] = assay: Induction of apoptosis in human BXPC-3 cells assessed as necrotic cells at 2.5 uM incubated for 48 hrs by Annexin V-FITC/PI staining based flow cytometric analysis (reference value: 1.65 %); format: functional
[2] = target: Bromodomain-containing protein 3 (Homo sapiens, UniProt Q15059); assay: Inhibition of BRD3-BD1/2 (unknown origin) by HTRF analysis
[3] = target: Bromodomain-containing protein 2 (Homo sapiens, UniProt P25440); assay: Inhibition of BRD2-BD1/2 (unknown origin) by HTRF analysis
MDA-MB-231 [4] = assay: Induction of cell cycle arrest in human MDA-MB-231 cells assessed as accumulation of cells at G0/G1 phase at 1 to 5 uM incubated for 48 hrs by flow cytometric analysis; format: functional, cell-based; conditions: dose 1-5 µM
BXPC-3 [5] = assay: Antiproliferative activity against human BXPC-3 cells assessed as inhibition of cell proliferation incubated for 6 days by CCK8 assay; format: functional, cell-based; conditions: time 6.0 day
[6] = AUC(0 to infinity) in ICR mouse at 60 mg/kg, ip measured upto 24 hrs by LC-MS/MS analysis; format: ADME, organism-based; design: time < 24 hrs, dose 60 mg/kg, route ip; conditions: in vivo
MDA-MB-231 [7] = assay: Induction of apoptosis in human MDA-MB-231 cells assessed as late apoptotic cells at 2.5 uM incubated for 48 hrs by Annexin V-FITC/PI staining based flow cytometric analysis (reference value: 1.06%); format: functional
MDA-MB-231 [8] = assay: Induction of apoptosis in human MDA-MB-231 cells assessed as early apoptotic cells at 5 uM incubated for 48 hrs by Annexin V-FITC/PI staining based flow cytometric analysis (reference value: 0.69%); format: functional
[9] = Toxicity in Balb/c nude mouse xenografted with human BXPC-3 cells assessed as effect on body weight at 30 to 60 mg/kg, ip administered daily for 30 days; format: organism-based; conditions: in vivo, 720 h, dose 30-60 mg/kg, time 30 day
[10] = AUC(0 to t) in ICR mouse at 60 mg/kg, ip measured upto 24 hrs by LC-MS/MS analysis; format: ADME, organism-based; design: time < 24 hrs, dose 60 mg/kg, route ip; conditions: in vivo
MDA-MB-231 [11] = assay: Induction of apoptosis in human MDA-MB-231 cells assessed as viable cells at 1 uM incubated for 48 hrs by Annexin V-FITC/PI staining based flow cytometric analysis (reference value: 97.63%); format: functional; conditions: read-out: Activity
MDA-MB-231 [12] = assay: Induction of apoptosis in human MDA-MB-231 cells assessed as early apoptotic cells at 2.5 uM incubated for 48 hrs by Annexin V-FITC/PI staining based flow cytometric analysis (reference value: 0.69%); format: functional
[13] = Cmax in ICR mouse at 60 mg/kg, ip measured upto 24 hrs by LC-MS/MS analysis; format: ADME, organism-based; design: time < 24 hrs, dose 60 mg/kg, route ip; conditions: in vivo
[14] = target: T1, Histone-lysine N-methyltransferase EZH2 (Homo sapiens, UniProt Q15910); assay: Inhibition of EZH2 in human BXPC-3 cells assessed as increase in H3K27ac level at 5 uM by fluorescence based analysis; format: cell-based
[15] = target: T1, Histone-lysine N-methyltransferase EZH2; assay: Inhibition of EZH2 in human BX-PC-3 cells assessed as decrease in H3K27me3 level at 5 uM by fluorescence based analysis; format: cell-based; conditions: BXPC-3
A549 = assay: Antiproliferative activity against human A549 cells assessed as inhibition of cell proliferation incubated for 6 days by CCK8 assay; format: functional, cell-based; conditions: time 6.0 day
BXPC-3 [16] = assay: Induction of apoptosis in human BXPC-3 cells assessed as late apoptotic cells at 5 uM incubated for 48 hrs by Annexin V-FITC/PI staining based flow cytometric analysis (reference value: 4.38 %); format: functional
MDA-MB-231 [17] = assay: Induction of apoptosis in human MDA-MB-231 cells assessed as late apoptotic cells at 5 uM incubated for 48 hrs by Annexin V-FITC/PI staining based flow cytometric analysis (reference value: 1.06%); format: functional
MDA-MB-231 [18] = assay: Induction of apoptosis in human MDA-MB-231 cells assessed as necrotic cells at 1 uM incubated for 48 hrs by Annexin V-FITC/PI staining based flow cytometric analysis (reference value: 0.63%); format: functional
[19] = target: Bromodomain testis-specific protein (Homo sapiens, UniProt Q58F21); assay: Inhibition of BRDT-BD1 (unknown origin) by HTRF analysis
BXPC-3 [20] = assay: Inhibition of cell proliferation in human BXPC-3 cells assessed as decrease in c-Myc protein level at 5 uM incubated for 48 hrs by IHC analysis; format: functional, cell-based
MDA-MB-231 [21] = assay: Inhibition of cell proliferation in human MDA-MB-231 cells assessed as decrease in c-Myc protein level at 5 uM incubated for 48 hrs by IHC analysis; format: functional, cell-based
BXPC-3 [22] = assay: Induction of apoptosis in human BXPC-3 cells assessed as early apoptotic cells at 1 uM incubated for 48 hrs by Annexin V-FITC/PI staining based flow cytometric analysis (reference value: 3.28 %); format: functional
BXPC-3 [23] = assay: Induction of apoptosis in human BXPC-3 cells assessed as early apoptotic cells at 5 uM incubated for 48 hrs by Annexin V-FITC/PI staining based flow cytometric analysis (reference value: 3.28 %); format: functional
BXPC-3 [24] = assay: Induction of apoptosis in human BXPC-3 cells assessed as viable cells at 1 uM incubated for 48 hrs by Annexin V-FITC/PI staining based flow cytometric analysis (reference value: 90.70%); format: functional; conditions: read-out: Activity
PLC-PRF-5 = assay: Antiproliferative activity against human PLC-PRF-5 cells assessed as inhibition of cell proliferation incubated for 6 days by CCK8 assay; format: functional, cell-based; conditions: time 6.0 day
[25] = Half-life in ICR mouse at 60 mg/kg, ip measured upto 24 hrs by LC-MS/MS analysis; format: ADME, organism-based; conditions: in vivo
BXPC-3 [26] = assay: Antitumor activity against human BXPC-3 cells xenografted in Balb/c nude mouse assessed as reduction in tumor growth at 60 mg/kg, ip administered daily for 30 days; format: functional, organism-based; conditions: time 30.0 day
BXPC-3 [27] = assay: Induction of apoptosis in human BXPC-3 cells assessed as viable cells at 2.5 uM incubated for 48 hrs by Annexin V-FITC/PI staining based flow cytometric analysis (reference value: 90.70%); format: functional; conditions: read-out: Activity
MDA-MB-231 [28] = assay: Induction of apoptosis in human MDA-MB-231 cells assessed as necrotic cells at 2.5 uM incubated for 48 hrs by Annexin V-FITC/PI staining based flow cytometric analysis (reference value: 0.63%); format: functional
BXPC-3 [29] = assay: Induction of cell cycle arrest in human BXPC-3 cells assessed as accumulation of cells at G0/G1 phase at 1 to 5 uM incubated for 48 hrs by flow cytometric analysis; format: functional, cell-based; conditions: dose 1-5 µM
[30] = MRT(0 to infinity) in ICR mouse at 60 mg/kg, ip measured upto 24 hrs by LC-MS/MS analysis; format: ADME, organism-based; conditions: in vivo
[31] = target: T1, Histone-lysine N-methyltransferase EZH2; assay: Inhibition of EZH2 in human MDA-MB-231 cells assessed as decrease in H3K27me3 level at 5 uM by fluorescence based analysis; format: cell-based
BXPC-3 [32] = assay: Induction of apoptosis in human BXPC-3 cells assessed as early apoptotic cells at 2.5 uM incubated for 48 hrs by Annexin V-FITC/PI staining based flow cytometric analysis (reference value: 3.28 %); format: functional
[33] = MRT(0 to t) in ICR mouse at 60 mg/kg, ip measured upto 24 hrs by LC-MS/MS analysis; format: ADME, organism-based; conditions: in vivo
BXPC-3 [34] = assay: Induction of apoptosis in human BXPC-3 cells assessed as viable cells at 5 uM incubated for 48 hrs by Annexin V-FITC/PI staining based flow cytometric analysis (reference value: 90.70%); format: functional; conditions: read-out: Activity

T1 sequence (Q15910 whole entry, looked up): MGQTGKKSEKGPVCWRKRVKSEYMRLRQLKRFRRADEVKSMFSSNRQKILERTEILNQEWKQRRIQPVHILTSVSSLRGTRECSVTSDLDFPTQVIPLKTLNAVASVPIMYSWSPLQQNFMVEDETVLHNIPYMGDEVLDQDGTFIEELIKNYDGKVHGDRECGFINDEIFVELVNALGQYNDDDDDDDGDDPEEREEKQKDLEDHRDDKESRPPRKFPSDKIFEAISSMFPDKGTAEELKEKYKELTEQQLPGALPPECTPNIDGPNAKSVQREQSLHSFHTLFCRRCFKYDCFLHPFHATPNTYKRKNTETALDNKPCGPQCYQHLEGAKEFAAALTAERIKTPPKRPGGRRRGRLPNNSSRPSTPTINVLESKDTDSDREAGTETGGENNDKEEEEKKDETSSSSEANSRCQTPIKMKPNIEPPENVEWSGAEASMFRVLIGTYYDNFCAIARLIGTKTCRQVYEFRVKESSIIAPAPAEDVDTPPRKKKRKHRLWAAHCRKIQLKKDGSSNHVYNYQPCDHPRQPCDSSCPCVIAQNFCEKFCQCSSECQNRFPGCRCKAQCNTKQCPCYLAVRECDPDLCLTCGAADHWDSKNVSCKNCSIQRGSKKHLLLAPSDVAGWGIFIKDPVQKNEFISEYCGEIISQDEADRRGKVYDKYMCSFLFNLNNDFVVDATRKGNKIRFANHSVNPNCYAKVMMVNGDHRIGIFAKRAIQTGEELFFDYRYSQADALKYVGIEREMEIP
Sequence of Bromodomain-containing protein 2 (P25440 whole entry): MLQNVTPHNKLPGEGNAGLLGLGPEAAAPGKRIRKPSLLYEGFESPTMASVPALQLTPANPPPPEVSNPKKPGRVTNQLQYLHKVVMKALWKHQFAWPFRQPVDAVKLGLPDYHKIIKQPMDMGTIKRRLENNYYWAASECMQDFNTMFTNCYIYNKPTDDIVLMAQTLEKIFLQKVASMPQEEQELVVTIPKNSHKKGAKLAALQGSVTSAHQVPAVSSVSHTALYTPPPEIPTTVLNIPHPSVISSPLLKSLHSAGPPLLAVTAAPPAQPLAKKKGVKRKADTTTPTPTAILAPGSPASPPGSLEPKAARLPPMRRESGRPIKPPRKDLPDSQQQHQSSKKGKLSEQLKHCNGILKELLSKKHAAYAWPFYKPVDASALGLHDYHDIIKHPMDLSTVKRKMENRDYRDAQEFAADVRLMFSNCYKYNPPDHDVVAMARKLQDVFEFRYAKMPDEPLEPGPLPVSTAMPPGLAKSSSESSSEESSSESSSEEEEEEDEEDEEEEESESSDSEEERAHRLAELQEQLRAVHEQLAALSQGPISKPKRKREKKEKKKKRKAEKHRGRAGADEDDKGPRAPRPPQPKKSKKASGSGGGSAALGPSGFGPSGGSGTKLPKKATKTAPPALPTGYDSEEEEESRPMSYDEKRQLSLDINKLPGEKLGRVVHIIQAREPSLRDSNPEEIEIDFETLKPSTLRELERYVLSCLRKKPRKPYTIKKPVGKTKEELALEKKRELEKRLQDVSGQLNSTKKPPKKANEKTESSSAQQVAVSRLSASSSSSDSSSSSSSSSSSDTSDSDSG
Sequence of Bromodomain-containing protein 3 (Q15059 whole entry): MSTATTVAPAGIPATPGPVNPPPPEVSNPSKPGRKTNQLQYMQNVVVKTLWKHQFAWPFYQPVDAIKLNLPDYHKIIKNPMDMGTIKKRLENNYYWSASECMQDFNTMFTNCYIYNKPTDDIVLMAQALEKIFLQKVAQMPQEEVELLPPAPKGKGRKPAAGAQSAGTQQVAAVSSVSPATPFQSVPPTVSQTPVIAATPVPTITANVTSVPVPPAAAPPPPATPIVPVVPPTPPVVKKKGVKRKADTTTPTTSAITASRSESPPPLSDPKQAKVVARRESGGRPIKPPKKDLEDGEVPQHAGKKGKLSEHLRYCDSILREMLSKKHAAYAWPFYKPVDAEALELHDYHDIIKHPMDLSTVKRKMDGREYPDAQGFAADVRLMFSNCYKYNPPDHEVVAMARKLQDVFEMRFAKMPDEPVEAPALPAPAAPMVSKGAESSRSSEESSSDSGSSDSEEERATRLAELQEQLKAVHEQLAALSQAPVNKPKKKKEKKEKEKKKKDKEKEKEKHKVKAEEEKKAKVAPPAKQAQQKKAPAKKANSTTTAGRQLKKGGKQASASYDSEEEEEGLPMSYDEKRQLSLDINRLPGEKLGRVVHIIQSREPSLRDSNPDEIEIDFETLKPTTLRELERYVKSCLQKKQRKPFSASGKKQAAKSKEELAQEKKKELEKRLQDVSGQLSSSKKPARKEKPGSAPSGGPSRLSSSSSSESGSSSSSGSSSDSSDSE

In the case of CCC(C)n1ccc2c(C(=O)NCc3c(C)cc(C)[nH]c3=O)cc(-c3cn(C)c(=O)c4[nH]ccc34)cc21 (stereo unspecified), the Activity (BXPC-3 [1]) is reported as 2.86%, the IC50 [2] is reported as 32 nM and the IC50 [3] is reported as 31 nM. The Activity (MDA-MB-231 [4]) was “Active”, the Activity (BXPC-3 [5]) was “Active” and the AUC(0-inf) [6] was 2000 ng·h/mL. The Activity (MDA-MB-231 [7]) was 2.29%, the Activity (MDA-MB-231 [8]) was 13.19% and the Activity [9] was “Non-Toxic”. The AUC(0-t) at 24 h [10] was 1820 ng·h/mL, the viability at 1 µM (MDA-MB-231 [11]) was 94.8% and the Activity (MDA-MB-231 [12]) was 8.53%. For the same molecule, the Cmax [13] was 2960 ng/mL, the inhibition [14] was “Active” and the inhibition [15] was “Active”. For the same molecule, the Activity (A549) was “Active”, the Activity (BXPC-3 [16]) was 23.83% and the Activity (MDA-MB-231 [17]) was 3.82%. For the same molecule, the Activity (MDA-MB-231 [18]) was 0.87%, the IC50 [19] was 35 nM and the inhibition (BXPC-3 [20]) was “Active”. For the same molecule, the inhibition (MDA-MB-231 [21]) was “Active”, the Activity (BXPC-3 [22]) was 6.84% and the Activity (BXPC-3 [23]) was 10.73%. For the same molecule, the viability at 1 µM (BXPC-3 [24]) was 82.6%, the Activity (PLC-PRF-5) was “Active” and the half-life [25] was 13.6 h. The Activity (BXPC-3 [26]) was “Active”, the viability at 2.5 µM (BXPC-3 [27]) was 71% and the Activity (MDA-MB-231 [28]) was 1.38%. For the same molecule, the Activity (BXPC-3 [29]) was “Active”, the MRT inf [30] was 6.94 h and the inhibition [31] was “Active”. For the same molecule, the Activity (BXPC-3 [32]) was 9.2%, the MRT last at 24 h [33] was 2.55 h and the viability at 5 µM (BXPC-3 [34]) was 62.1%.
